Data on 41 compounds can be found in ChEMBL document CHEMBL4483862, “Open-source discovery of chemical leads for next-generation chemoprotective antimalarials” (2018).

The subject of this test is Plasmodium berghei. Description: Luciferase/luciferin-expressing antifolate-resistant parasites were used to infect a culture of HepG2 cells that were pre-incubated with compounds. Infected hepatocytes emit light due to the luciferase reaction. Assay results are presented as the percent inhibition of light emission compared to control. […]. In kind it is functional. Conditions: sporozoite; for IC90: read-out: LUCIFERASE INFECTION ASSAY - IC90.

Setting [1] is: read-out: LUCIFERASE INFECTION ASSAY - IC50.

The structures appear in SMILES notation. Bounds are passed on as bounds.

As for `CC(=O)N1CCc2cc(NC(=O)c3cc(C)n(C4CCCCC4)c3C)ccc21`, the IC90 is 0.349 µM. Further, the IC50 (PBLUC_HILL_SLOPE 2.13, PBLUC_R_SQUARED 0.772, read-out: LUCIFERASE INFECTION ASSAY - IC50) is 0.125 µM.

`CCCCCCCCc1nnc(NC(=O)c2nccnc2N)s1`: the IC90 came to 4.58 µM. For the same compound, the IC50 (PBLUC_HILL_SLOPE 9.5, PBLUC_R_SQUARED 0.438, read-out: LUCIFERASE INFECTION ASSAY - IC50) came to 3.63 µM.

In the case of `O=C(OCC(=O)C12CC3CC(CC(C3)C1)C2)c1cc2ccccc2cc1O`, the IC90 is more than 10 µM. For the same compound, under setting [1], the IC50 is more than 10 µM.

With `Cc1[nH]c2ccccc2c1C(=O)C(C)OC(=O)C1(c2cccc(F)c2)CCCC1` (configuration not stated), the IC90 was more than 10 µM. Also, the IC50 (HEPG2TOX_HILL_SLOPE 0.175, HEPG2TOX_R_SQUARED 0.148, read-out: LUCIFERASE INFECTION ASSAY - IC50) is more than 10 µM.

Consider `Cc1cc(C(=O)CSC2=NCCS2)c(C)n1-c1ccc(F)cc1`, for which the concentration for an effect of 90% (IC90) is more than 10 µM. In addition, for the setting “PBLUC_HILL_SLOPE 0.709, PBLUC_R_SQUARED 0.459, read-out: LUCIFERASE INFECTION ASSAY - IC50”, the IC50 was 2.87 µM.

For the compound `Nc1cc(Cl)c(-n2cccc2)cc1Oc1ccc(Cl)cc1`, the IC90 was more than 10.3 µM. Moreover, under “FFLUC_HILL_SLOPE 2.28, FFLUC_R_SQUARED 0.58, read-out: LUCIFERASE INFECTION ASSAY - IC50”, the half-maximal inhibitory concentration (IC50) is more than 10.3 µM.

Consider `Cc1ccc(-n2c(SCCCC(=O)c3cccs3)nnc2-c2ccccc2)cc1C`, for which the IC90 was more than 10 µM. Where the note is “FFLUC_HILL_SLOPE 1.75, FFLUC_R_SQUARED 0.116, read-out: LUCIFERASE INFECTION ASSAY - IC50”, the IC50 is more than 10 µM.

Take `c1ccc(CN2CCc3nc(NCc4cccc(Oc5ccccc5)c4)ncc3C2)cc1`: the IC90 was more than 7.81 µM. Besides, the IC50 under setting [1] was more than 7.81 µM.

Consider `COc1ccc(NC(=O)c2cccc(C3(CNc4ccccc4)CC3)c2)cn1`, for which the IC90 was more than 10 µM. Also, under setting [1], the IC50 is more than 10 µM.

As to `Cc1cccc(CNc2nc3cnc(-c4ccccc4)cc3n2C)c1`, the IC90 was more than 10 µM. Moreover, under setting [1], the IC50 is more than 10 µM.

For `Cc1cccn2c(=O)c(/C=N/O)c(Nc3ccc(SC(F)F)cc3)nc12`, the IC90 is more than 10 µM. Moreover, the IC50 under setting [1] is more than 10 µM.

Consider `CN(c1ccccc1)c1nccc2nc(-c3ccncc3)[nH]c12`, for which the IC90 is more than 10 µM. Further, the IC50 (HEPG2TOX_HILL_SLOPE 0.766, HEPG2TOX_R_SQUARED 0.225, read-out: LUCIFERASE INFECTION ASSAY - IC50) was more than 10 µM.

Take `O=C(Cc1nc(C23CC4CC(CC(C4)C2)C3)cs1)NCc1ccccc1`: the IC90 is more than 10 µM. For the same compound, the IC50 under setting [1] is more than 10 µM.

For `COc1ccc(S(=O)(=O)N(CC(=O)c2cc(C)n(-c3ccc(Cl)cc3)c2C)Cc2ccccc2)cc1`, the IC90 was more than 10 µM. Also, under setting [1], the IC50 was more than 10 µM.

Take `O=C(Nc1nc(-c2ccc(Cl)cc2Cl)cs1)C1CC(=O)N(CCc2ccccc2)C1` (configuration not stated): the IC90 was more than 10 µM. Besides, the IC50 (FFLUC_HILL_SLOPE 45.5, FFLUC_R_SQUARED 0.597, PBLUC_HILL_SLOPE 12.9, PBLUC_R_SQUARED 0.652, read-out: LUCIFERASE INFECTION ASSAY - IC50) stood at 9.1 µM.

Turning to `COc1ccc(CCN2C(=O)N(C(C)C)C(=O)C23CCN(Cc2ccc(Cl)cc2)CC3)cc1`, the IC90 was more than 7.02 µM. Moreover, the IC50 (PBLUC_HILL_SLOPE 14.8, PBLUC_R_SQUARED 0.317, read-out: LUCIFERASE INFECTION ASSAY - IC50) came to 6.11 µM.

With `CCC(C)(C)C1CCC(NC(=O)N(C)CC(=O)Nc2c(C)cccc2C)CC1` (configuration not stated), the IC90 is more than 10 µM. The IC50 under setting [1] was more than 10 µM.

In the case of `CCS(=O)(=O)c1ccc(O)c(NC(=O)Cc2csc(-c3ccsc3)n2)c1`, the 90% effect concentration (IC90) is more than 10 µM. In addition, the IC50 under setting [1] was more than 10 µM.

`CN(C)C(=O)N1CCCC(C(=O)Nc2nc(-c3c(F)cccc3F)cs2)C1` (configuration not stated): the IC90 is more than 10 µM. The IC50 (PBLUC_HILL_SLOPE 2.82, PBLUC_R_SQUARED 0.52, read-out: LUCIFERASE INFECTION ASSAY - IC50) was 5.62 µM.

Turning to `COc1ccc(-c2cnc3cnc(-c4cccs4)cn23)cn1`, the IC90 is 4.6 µM. The IC50 (PBLUC_HILL_SLOPE 13.2, PBLUC_R_SQUARED 0.556, read-out: LUCIFERASE INFECTION ASSAY - IC50) worked out at 3.89 µM.

Take `COc1ccc(-c2cnc(N)c(-c3ccc(O)c(OC)c3)c2)cc1`: the IC90 was determined as 3.77 µM. For the setting “HEPG2TOX_HILL_SLOPE 8.61, HEPG2TOX_R_SQUARED 0.753, PBLUC_HILL_SLOPE 13.4, PBLUC_R_SQUARED 0.628, read-out: LUCIFERASE INFECTION ASSAY - IC50”, the IC50 was 3.2 µM.

Take `Cc1n(-c2ccccc2)c2c([n+]1C)C(=O)c1ccccc1C2=O`: the IC90 amounted to 0.202 µM. Besides, the IC50 (HEPG2TOX_HILL_SLOPE 0.753, HEPG2TOX_R_SQUARED 0.901, PBLUC_HILL_SLOPE 2.16, PBLUC_R_SQUARED 0.72, read-out: LUCIFERASE INFECTION ASSAY - IC50) is 0.0731 µM.

Take `Cc1c(C(=O)NC2CCN(Cc3ccccc3)C2)oc2c(Cl)cccc12` (configuration not stated): the IC90 was more than 10 µM. Besides, the IC50 under setting [1] was more than 10 µM.

As to `Cc1ccc(C)c(-n2cc(-c3ccc(Cl)cc3)nc2SCC(=O)c2ccc(Cl)c(Cl)c2)c1`, the IC90 was more than 10 µM. For the same compound, the IC50 (FFLUC_HILL_SLOPE 12.4, FFLUC_R_SQUARED 0.889, HEPG2TOX_HILL_SLOPE 8.6, HEPG2TOX_R_SQUARED 0.032, read-out: LUCIFERASE INFECTION ASSAY - IC50) was more than 10 µM.

Consider `OC(C#CC(O)(c1ccccc1)c1ccccc1)(c1ccccc1)c1ccccc1`, for which the IC90 is more than 8.45 µM. For the same compound, the IC50 under setting [1] is more than 8.45 µM.

On to `O=C(Nc1cc(C(F)(F)F)cc(C(F)(F)F)c1)Nc1cc(C(F)(F)F)cc(C(F)(F)F)c1`, for which the IC90 was more than 6.81 µM. In addition, the IC50 under setting [1] is more than 6.81 µM.

On to `O=[N+]([O-])c1ccc(-c2nnc(SCc3c(Cl)cccc3Cl)o2)o1`, for which the IC90 stood at 8.84 µM. Moreover, where the note is “HEPG2TOX_HILL_SLOPE 11.4, HEPG2TOX_R_SQUARED 0.952, PBLUC_HILL_SLOPE 3.38, PBLUC_R_SQUARED 0.564, read-out: LUCIFERASE INFECTION ASSAY - IC50”, the IC50 was determined as 4.61 µM.

With `CS(=O)(=O)c1ccc(CN2CCN3C(C(=O)Nc4ccc(F)c(Cl)c4)=COC3=NC2=O)cc1`, the IC90 is more than 10 µM. Besides, the IC50 (HEPG2TOX_HILL_SLOPE 2.2, HEPG2TOX_R_SQUARED 0.936, PBLUC_HILL_SLOPE 1.17, PBLUC_R_SQUARED 0.243, read-out: LUCIFERASE INFECTION ASSAY - IC50) was more than 10 µM.

As to `Clc1ccc(CSc2nncn2-c2ccc3c(c2)OCCO3)cc1`, the IC90 is 3.5 µM. Further, the IC50 (HEPG2TOX_HILL_SLOPE 1.37, HEPG2TOX_R_SQUARED 0.824, PBLUC_HILL_SLOPE 1.99, PBLUC_R_SQUARED 0.536, read-out: LUCIFERASE INFECTION ASSAY - IC50) was 1.16 µM.

For `c1ccc(NCc2ccc(-c3cn4c(-c5cccnc5)cnc4cn3)cc2)cc1`, the IC90 is 7.31 µM. Also, the IC50 (PBLUC_HILL_SLOPE 2.17, PBLUC_R_SQUARED 0.86, read-out: LUCIFERASE INFECTION ASSAY - IC50) amounted to 2.66 µM.

As to `CNc1nc2cnc(Nc3ccc(OC(F)(F)F)cc3)cc2n1-c1cccc(C(F)(F)F)c1`, the IC90 was more than 10 µM. Moreover, the IC50 (PBLUC_HILL_SLOPE 7.78, PBLUC_R_SQUARED 0.568, read-out: LUCIFERASE INFECTION ASSAY - IC50) was found to be 8 µM.

As to `c1ccc(-c2ncc(CSc3ncnc4sccc34)s2)cc1`, the IC90 is more than 10 µM. For the same compound, the IC50 under setting [1] was more than 10 µM.

On to `CC(=O)c1cccc(-c2cnc3c(Nc4cccc(OC(F)(F)C(F)F)c4)nccn23)c1`, for which the IC90 amounted to 6 µM. Also, under “HEPG2TOX_HILL_SLOPE 2.66, HEPG2TOX_R_SQUARED 0.947, PBLUC_HILL_SLOPE 1.76, PBLUC_R_SQUARED 0.616, read-out: LUCIFERASE INFECTION ASSAY - IC50”, the IC50 was 1.72 µM.

With `OCc1ccc(-c2cnc3cnc(-c4ccccc4CO)cn23)cc1`, the IC90 was more than 9.96 µM. Under setting [1], the IC50 was more than 9.96 µM.

Regarding `CC(C)CC(N)c1csc(NC(=O)c2ccc(F)c(Cl)c2)n1` (configuration not stated), the 90% effect concentration (IC90) is more than 9.65 µM. Moreover, the IC50 under setting [1] was 8.74 µM.

As to `O=C(Cn1cnc2cc(N3CCOCC3)c([N+](=O)[O-])cc2c1=O)c1ccc(C2CCCCC2)cc1`, the IC90 was more than 10 µM. The IC50 under setting [1] was more than 10 µM.

Turning to `CCOc1ncccc1C(=O)Nc1cc(S(=O)(=O)N2CCOCC2)ccc1Oc1ccccc1`, the IC90 was more than 10 µM. For the same compound, where the note is “FFLUC_HILL_SLOPE 2.19, FFLUC_R_SQUARED 0.739, read-out: LUCIFERASE INFECTION ASSAY - IC50”, the IC50 is more than 10 µM.

For `CN(C)Cc1ccc(-c2ccccc2CNC(=O)CC2CC3CCC2C3)cc1` (configuration not stated), the IC90 is more than 10 µM. For the same compound, the IC50 (PBLUC_HILL_SLOPE 2, PBLUC_R_SQUARED 0.172, read-out: LUCIFERASE INFECTION ASSAY - IC50) is more than 10 µM.

Consider `CCOC(=O)c1cc(C#N)c(Sc2ccccn2)nc1C(F)(F)F`, for which the IC90 is more than 9.34 µM. The IC50 under setting [1] is more than 9.34 µM.

With `c1ccc2cc(-c3cnc4ccc(NCc5ccncc5)nn34)ccc2c1`, the IC90 worked out at 4.49 µM. Also, the IC50 (HEPG2TOX_HILL_SLOPE 3.1, HEPG2TOX_R_SQUARED 0.978, PBLUC_HILL_SLOPE 7.42, PBLUC_R_SQUARED 0.525, read-out: LUCIFERASE INFECTION ASSAY - IC50) is 3.34 µM.

Regarding `Nc1nc(CNC(c2ccccc2)c2ccc(Cl)cc2)nc(Nc2ccccc2)n1` (configuration not stated), the IC90 was more than 10 µM. Further, the IC50 (FFLUC_HILL_SLOPE 14.9, FFLUC_R_SQUARED 0.741, read-out: LUCIFERASE INFECTION ASSAY - IC50) is more than 10 µM.

The IC50 is the midpoint of a concentration-inhibition curve. Broadly, the IC90 is the concentration at which the effect reaches the 90% level.
